Source: patent publication US8084395B2, “4-aza indole derivatives and their use as fungicides” (Syngenta Crop Protection, Inc., priority 2007, dated 2011)

Row | melting point [°C] | SMILES
1 | 127 to 128 | Cc1cnc2c(-c3ccc(F)cc3)c(-c3ccncc3)[nH]c2c1 [Example 1, 3-(4-Fluoro-phenyl)-6-methyl-2-pyridin-4-yl-1H-pyrrolo[3,2-b]pyridine]
2 | 208 to 209 | COCn1c(-c2ccncc2)c(-c2ccc(F)cc2)c2ncc(C)cc21 [Example 2, 3-(4-Fluoro-phenyl)-1-methoxymethyl-6-methyl-2-pyridin-4-yl-1H-pyrrolo[3,2-b]pyridine]
3 | 169 to 170 | COCOn1c(-c2ccncc2)c(-c2ccc(F)cc2)c2ncccc21 [Example 5, 3-(4-Fluoro-phenyl)-1-methoxymethoxy-2-pyridin-4-yl-1H-pyrrolo[3,2-b]pyridine]
4 | 237 to 238 | COC(=O)CC(=O)Nc1cc(-c2[nH]c3cc(C)cnc3c2-c2ccc(F)cc2)ccn1 [Example 8, N-{4-[3-(4-Fluoro-phenyl)-6-methyl-1H-pyrrolo[3,2-b]pyridin-2-yl]-pyridin-2-yl}-malonamic acid methyl ester]
5 | 255 to 256 | FCCn1c(-c2ccnc(Nc3cccc(F)c3)c2)c(-c2ccc(F)cc2)c2ncccc21 [Example 9, {4-[1-(2-Fluoro-ethyl)-3-(4-fluoro-phenyl)-1H-pyrrolo[3,2-b]pyridin-2-yl]-pyridin-2-yl}-(3-fluoro-phenyl)-amine]
6 | 157 to 158 | NC(=O)c1cc(-c2[nH]c3cccnc3c2-c2ccc(F)cc2)ccn1 [Example 10, 4-[3-(4-Fluoro-phenyl)-1H-pyrrolo[3,2-b]pyridin-2-yl]-pyridine-2-carboxylic acid amide]
7 | 169 to 170 | Fc1ccc(-c2c(-c3ccncn3)[nH]c3cccnc23)cc1 [Example 11, 3-(4-Fluoro-phenyl)-2-pyrimidin-4-yl-1H-pyrrolo[3,2-b]pyridine]
8 | 151 to 152 | COCC(C)Nc1nccc(-c2c(-c3ccc(F)cc3)c3ncccc3n2COC)n1 (centres unmarked) [Example 12, {4-[3-(4-Fluoro-phenyl)-1-methoxymethyl-1H-pyrrolo[3,2-b]pyridin-2-yl]-pyrimidin-2-yl}-(2-methoxy-1-methyl-ethyl)-amine]
